# US12129255B2, “Pyrido [2,3-d]pyrimidine derivatives as inhibitors of human immunodeficiency virus replication” (VIIV HEALTHCARE UK (No. 5) LIMITED, priority 2019, dated 2024)
# Assays:
# [1] = IV pharmacokinetics in dog; assay type: in vivo, Beagle Dogs
# Method: PK was investigated in male CD1 mice, Wistar Han Rats, Cynomolgus monkeys, and Beagle Dogs. Two groups of animals (N=3 per group) received test compound either as an intravenous (IV) dose (1 mg/kg) or by oral gavage (5 mg/kg solution and suspension). Drug was formulated in 90% PEG 400, 10% ethanol for IV administration and in 90% PEG400, 5% ethanol for PO administration. Blood samples were collected at 0.167, 0.25, 0.5, 0.75, 1, 2, 3, 5, 7, 24, 48, 72 and 96 h post dose for IV; 0.25, 0.5, 0.75, 1, 2, 3, 5, 7, 24, 48, 72 and 96 h post dose for oral. Blood samples were collected into K3EDTA tubes and centrifuged at 1500 to 2000×g to obtain plasma. Plasma samples were stored at −20° C. until analysis by LC-MS/MS. All in vivo samples were injected on an Exion LC 4500 Triple Quad™ LC-MS/MS system where the column was maintained at 60° C. and the flow rate was 0.6 mL/min. All LC-MS/MS analysis parameters are captured electronically in the raw data files. Rat IV, Dog IV, Monkey IV, and Monkey PO PK samples were analyzed by General Analysis Method A. Mouse IV, Mouse PO, and Dog PO PK samples were analyzed by General Analysis Method B. Rat PO samples were analyzed by General Analysis Method C.
# The PK parameters were obtained by non-compartmental analysis of plasma concentration vs time data (Phoenix WinNonlin v8.1). The peak concentration (Cmax) and time for Cmax (Tmax) were recorded directly from experimental observations. The area under the curve from time zero to the last sampling time [AUC0-T] and the area under the curve from time zero to infinity [AUCINF] were calculated using the linear-log trapezoidal rule. The total plasma clearance (CLTp), steady-state volume of distribution (VSS), apparent elimination half-life (T-HALF), and mean residence time (MRT) were estimated after IV administration. Estimations of AUC and T-HALF were made using a minimum of three timepoints with quantifiable concentrations. The absolute oral bioavailability (F) was estimated as the ratio of dose-normalized AUC values following oral and IV doses.
# CYP2B6 = assay: Cytochrome P450 (CYP2B6) induction in cryopreserved human hepatocytes, mRNA fold-change method; assay type: in vitro ADME; settings: hepatocytes from three donors, 0.12 to 30 μM, 48 hours; Example 1 all three donors, Example 60.2 2 of 3 donors
# Method: Following the guidance of the FDA (“In Vitro Metabolism- and Transporter-Mediated Drug-Drug Interaction Studies Guidance for Industry”), the potential of Example 1 and Example 60.2 to induce CYP2B6 expression was tested using hepatocytes from the same three individual donors (rather than pooled donors), and changes in enzyme mRNA levels were evaluated using the “fold-change method”. In this test a fold-change in mRNA levels less than 2-fold is considered a negative finding, while a change 2-fold is considered a positive finding.
# Compounds were tested in a CYP induction assay using inducible cryopreserved human primary hepatocytes from three donors to determine the potential to cause induction (as measured by an increase in mRNA transcription) of CYP2B6. […] At the end of the incubation, the integrity of cell monolayers, cell density and viability were evaluated to assess cytotoxicity effects. […] Samples were then used in reverse transcription polymerase chain reactions (RT-PCR) to quantify the amount of specific mRNA species encoding the human CYP2B6 gene.
# The induction potential of test compounds and controls was compared to known CYP2B6 inducer Phenobarbital (1000 μM). The results of this assay are expressed as fold induction. […] The cytotoxicity was also assessed in parallel to avoid false positive CYP induction results due to cytotoxicity. […]
# [2] = Metabolism in liver microsomes (rat); assay type: in vitro ADME; settings: pH 7.4, 1 μM compound, 1 mg/mL microsomes, NADPH, read-out: Rat liver microsome T1/2
# Method: Liver microsomes from human, rat dog and monkey were thawed and diluted to a final concentration of 1 mg/mL in 100 mM potassium phosphate buffer (pH 7.4). Test compounds and controls were prepared at 100× final concentration of 1 μM in 1:1 acetonitrile:water (v/v) and aliquoted into microsomal mixture. The mixture was preincubated at 37° C. in a shaking water bath for 10 minutes. The incubations were performed in duplicate. Three controls were included in the incubations; warfarin, phenacetin, and verapamil. After the preincubation, the reaction was initiated with NADPH at a final concentration of 1 mM. At 0, 5, 15, 30, 45 and 60 minutes, 25 μL of sample was removed and quenched with 300 μL of acetonitrile containing internal standard (Telmisartan). The samples were vortexed for 5 minutes at 1200 rpm and then centrifuged at 4000 rpm for 10 min. A 100 μL aliquot of supernatant was diluted three-fold with water and injected on an Exion LC 4500 Triple Quad LC-MS/MS system. Results were reported as a percentage of parent remaining and was calculated from peak area ratios of test compound remaining after at each time point and compared to time zero incubation.
# [3] = Beagle, plasma, Dog, IV 1 mg/kg
compound,measurement,setting,value
"Cn1nc(NS(C)(=O)=O)c2c(Cl)ccc(-n3c([C@H](Cc4cc(F)cc(F)c4)NC(=O)Cn4nc(C(F)F)c5c4C(F)(F)[C@@H]4C[C@H]54)nc4nc(OCCC(F)(F)F)ccc4c3=O)c21 (atropisomer, axis not shown; (P)) [Example 1, N—((S)-1-((3P)-3-(4-chloro-1-methyl-3-(methylsulfonamido)-1H-indazol-7-yl)-4-oxo-7-(3,3,3-trifluoropropoxy)-3,4-dihydropyrido[2,3-d]pyrimidin-2-yl)-2-(3,5-difluorophenyl)ethyl)-2-((3bS,4aR)-3-(difluoromethyl)-5,5-difluoro-3b,4,4a,5-tetrahydro-1H-cyclopropa[3,4]cyclopenta[1,2-c]pyrazol-1-yl)acetamide]",clearance,[1]; [3],1.68 mL/min/kg
same,half-life,[1]; [3],8.6 h
same,Vd,"[1]; Beagle, plasma, Dog, IV 1 mg/kg, read-out: Vss",0.83 L/kg
same,clearance improved relative to Example 60.2,"[1]; dog, IV",4.9 fold
same,half-life in circulation higher than Example 60.2,"[1]; dog, IV",3.4 fold
same,CYP2B6 induction finding (mRNA fold-change method),CYP2B6,negative finding (a fold-change in mRNA levels less than 2-fold is considered a negative finding)
same,half-life at 1 μM,[2],> 2 h
